Data reported in patent US5665724A, “Substituted pyrimidinylaminothiazole derivatives useful as platelet aggregation inhibitors” (Ortho Pharmaceutical Corporation, priority 1995, dated 1997).

Key:
[1] = system: platelets (platelet aggregation); test: Platelet aggregation inhibition (gel-filtered platelets, thrombin or ADP agonist, aggregometer); format: cell-based; details: 37° C.; for IC50: % Inhibition Platelet Aggregation @ 50 μM, read-out: Platelet Aggregation, concentration given in lieu of a percentage (IC50); for inhibition at 50 µM: Platelet, 50 μM compound, three minutes
Description: The percentage of platelet aggregation is calculated as an increase in light transmission of drug treated platelet concentrate vs control treated platelet concentrate. Blood is obtained from drug free, normal donors and placed into tubes containing 0.13M sodium citrate (two sources are routinely used: platelet concentrate obtained from Biological Specialty Corp., Lansdale, Pa. or whole blood obtained from donors). Platelet rich plasma (PRP) is collected by centrifugation of the concentrate or whole blood at 130×g for 15 minutes at 25° C. The PRP (5 mL) is gel filtered through Sepharose 2B (bed volume 50 mL), and the platelet count is adjusted to 2×10^7 platelets per sample. The following constituents are added to a siliconized cuvette: 250 μL of the concentrated platelet filtrate, 100 μL of Tyrode's buffer (0.14M NaCl, 0.0027M KCl, 0.012M NaHCO3, 0.76 mM Na2 HPO4, 0.0055M glucose and 2 mg/mL BSA pH 7.4), 50 μL of 2 mM calcium and test drug […]. Aggregation is monitored in a dual channel Chrono-log Aggregometer for three minutes following the addition of agonist (thrombin 50 μL of 1 unit/mL, or ADP 50 μL of 100 μM). The final assay volume is 500 μL. The reaction takes place at 37° C. The peak aggregation response is calculated as the increase in light transmission units over a three minute period. The difference of the increase in light transmission between control and drug treated platelets is then expressed as a percent of the nondrug treated controls.

[2] = system: fibrinogen binding to activated platelets; test: 125I-Fibrinogen binding to activated platelets; details: thrombin-activated platelets, 125I-fibrinogen 0.15 μM; for IC50: printed in column % Inhibition Fibrinogen Binding @ 30 μM, read-out: Fibrinogen Binding, IC50 (concentration given in lieu of a percentage); for % Inhibition Fibrinogen Binding @ 30 μM: 30 μM compound, 10 minutes, room temperature
Description: The compounds of the invention as identified above are evaluated for platelet aggregation inhibition activity as indicated by the percentage of non-aggregated platelets which are available for binding in accordance with the following procedure.
^125 I-Fibrinogen binding to activated platelets is a modification of the procedure described by Bennett et al., 1988. Briefly, 40 mL of PRP (obtained from Biological Specialty Corp., Lansdale, Pa.) are centrifuged at 120×g to remove contaminating red cells. Aspirin (50 μM) is added and the PRP is incubated at 37° C. for 20 minutes. The pH of the PRP is adjusted to 6.5 with 3.8% sodium citrate and 0.9 μM of PGE1 is added. Platelets are concentrated by a 300×g centrifugation (10 minutes) and the pellet is resuspended in 4 mL. of Tyrode's buffer. The platelet suspension (4 mL) is gel-filtered through a Sepharose-2B column (50 mL bed volume). The platelet count is adjusted to 1×10^8 platelets per 200 mL. The binding reaction is performed in polystyrene tubes (final volume […]). Reagents are added in the following order: 80 mL of Tyrode's buffer, 50 mL of CaCl2 (final concentration (f.c.) […]) and 50 mL of thrombin (f.c. 0.1 unit/mL). The platelet suspension is then added and the mixture is allowed to incubate at room temperature for 2 minutes. Hirudin (50 mL, f.c. 0.5 unit/mL) is immediately added to prevent the catalytic activity of thrombin. Various concentrations of the compound to be tested […] with the competing radioligand ^125 I-fibrinogen (f.c. of 0.15 μM) are added. The mixture is incubated for 10 minutes at room temperature. To terminate the binding reaction the platelets are sedimented (10,000×g for 3 minutes) through silicone oil (3:1 hi-phenol 550/methyl silicone 200, W. F. Nye, Inc., New Bedford, Mass.), in an Eppendorf centrifuge.
The tips of the centrifuge tubes containing the pelleted platelets are cut off and counted for ^125 I-fibrinogen associated with the stimulated platelets. The amount of platelet radioactivity measured in the presence of nonlabeled fibrinogen (4 mg/mL) is considered the nonspecific binding. All samples are repeated in triplicate.
Data are expressed as a percent at concentrations of 30 μM of specifically bound ^125 I-fibrinogen to the platelets in Table 6 below. Positive percentages of fibrinogen binding indicates higher activity for inhibiting platelet aggregation since only non-aggregated or free platelets are available for fibrinogen binding. Alternatively, a concentration is provided in lieu of a percentage to indicate the IC50 of concentration of compound which provides 50% fibrinogen binding.

| IC50 [1] | IC50 [2] | SMILES | inhibition at 50 µM [1] | % Inhibition Fibrinogen Binding @ 30 μM [2] |
| --- | --- | --- | --- | --- |
| 15 µM | 30 µM | O=C(NCCCNC1CCCCC1)c1cnc(Nc2nc(-c3cccc(C(F)(F)F)c3)cs2)nc1C(F)(F)F [Cmpd 6] | – | – |
| – | – | CCN(CC)CCCNC(=O)c1cnc(Nc2nc(-c3ccc(C)cc3)cs2)nc1C(F)(F)F [Cmpd 2] | 75% | 12% |
| – | – | Cc1sc(Nc2ncc(C(=O)NCCCNC3CCCCC3)c(C(F)(F)F)n2)nc1-c1ccccc1 [Cmpd 18] | 58% | 47% |
| 10 µM | – | NCCCNC(=O)c1cnc(Nc2nc(-c3cccc(C(F)(F)F)c3)cs2)nc1C(F)(F)F [Cmpd 4] | – | 50% |
| – | – | O=C(NCCCNC1CCCC1)c1cnc(Nc2nc(-c3cccc(C(F)(F)F)c3)cs2)nc1C(F)(F)F [Cmpd 8] | 85% | 50% |
| – | – | O=C(NCCCN1CCCCCC1)c1cnc(Nc2nc(-c3cccc(Cl)c3)cs2)nc1C(F)(F)F [Cmpd 14] | 98% | 15% |
| 14.8 µM | – | O=C(NCCCNC1CCCCC1)c1cnc(Nc2nc(-c3cccc(Cl)c3)cs2)nc1C(F)(F)F [Cmpd 15] | – | 73% |
| – | – | O=C(NCCCNC1CCCCC1)c1cnc(Nc2nc(-c3cccc(C(F)(F)F)c3)cs2)nc1-c1ccccc1 [Cmpd 10] | 25% | 15% |
| – | – | O=C(NCCCN1CCCC1=O)c1cnc(Nc2nc(-c3cccc(C(F)(F)F)c3)cs2)nc1C(F)(F)F [Cmpd 11] | 25% | 10% |
| – | – | O=C(NCCCN1CCCCCC1)c1cnc(Nc2nc(-c3cccc(C(F)(F)F)c3)cs2)nc1C(F)(F)F [Cmpd 7] | 95% | 14% |
| – | – | CN1CCN(CCCNC(=O)c2cnc(Nc3nc(-c4cccc(C(F)(F)F)c4)cs3)nc2C(F)(F)F)CC1 [Cmpd 12] | 90% | 47% |
| – | – | O=C(NCCCN1CCCCC1)c1cnc(Nc2nc(-c3cccc(Cl)c3)cs2)nc1C(F)(F)F [Cmpd 13] | 94% | 16% |
| – | 3.4 µM | CCCCNCCCNC(=O)c1cnc(Nc2nc(-c3cccc(C(F)(F)F)c3)cs2)nc1C(F)(F)F [Cmpd 9] | 96% | – |
| – | – | O=C(NCCCn1ccnc1)c1cnc(Nc2nc(-c3cccc(C(F)(F)F)c3)cs2)nc1C(F)(F)F [Cmpd 3] | 55% | 4% |
| – | – | CCCNCCCNC(=O)c1cnc(Nc2nc(-c3cccc(Cl)c3)cs2)nc1C(F)(F)F [Cmpd 16] | 96% | 20% |
| – | – | COc1ccc(-c2csc(Nc3ncc(C(=O)NCCCN(C)C)c(C(F)(F)F)n3)n2)cc1 [Cmpd 5] | 96% | 47% |
| – | – | CCCCNCCCNC(=O)c1cnc(Nc2nc(-c3ccc(C)cc3)cs2)nc1C(F)(F)F [Cmpd 17] | 36% | 43% |
